Key:
KDR = molecular target: T1, KDR (Homo sapiens, UniProt P35968); experiment: KDR autophosphorylation ELISA in HUVEC cells; format: cell-based; settings: VEGF165-stimulated, phospho-KDR ELISA, 1 h compound incubation
T1 construct: host or cells: HUVEC (human umbilical vein endothelial cells)
Procedure: Example C: KDR Autophosphorylation ELISA in HUVEC Cells
umbilical vein endothelial cells or HUVEC (Lonza #C2519A) were seeded at 2×10^4 cells/well onto 96-well plates (Corning #3904), in EGM-2 growth medium (Lonza #CC-3162) containing 1% Penicillin Streptomycin (Thermo Fisher #15140-122). HUVEC cells were incubated at 37° C., 5% CO2 for 24 h and then starved for 24 h in serum-free EBM-2 basal medium (Lonza #CC-3156) containing 1% Penicillin Streptomycin. Test compounds were serially diluted to produce an 8-point dose curve in fresh serum-free medium to a final concentration of 0.3% DMSO (vehicle) and added to the cells and incubated for 1 h. Cells were then stimulated with 100 ng/mL recombinant human VEGF165 (R&D Systems #293-VE-500) for 5 min, washed with cold PBS, and immediately lysed with 130 μL of cold IX lysis buffer [20 mM Tris, 137 mM sodium chloride, 2 mM EDTA, 10% glycerol, 1% NP-40 alternative, 1 mM activated sodium orthovanadate, 1 mM PefaBloc SC (Sigma-Aldrich #11429868001), protease/phosphatase inhibitor tablet (Thermo Fisher #A32959)]. Lysates were collected and 100 μL/well added into the human phospho-KDR DuoSet IC ELISA (R&D Systems #DYC 1766-2). Assay was performed according to manufacturer's instructions and sample phospho-KDR concentrations were extrapolated using human phospho-KDR control (R&D Systems #841421) as a standard. Positive control wells (100% activity) contained VEGF165-stimulated, DMSO-treated cell lysates. Negative control wells (0% activity) contained non-stimulated cell lysates. IC50 values were calculated by nonlinear regression analysis using a 4-parameter logistic curve fit in ActivityBase XE (IDBS).

AXL = molecular target: T2, AXL (Homo sapiens, UniProt P30530); experiment: AXL autophosphorylation ELISA in A-172 cells; format: cell-based; settings: A-172 glioblastoma cells, Gas6-stimulated, phospho-AXL ELISA, 1 h compound incubation
T2 construct: host or cells: A-172 glioblastoma cells
T2 sequence (P30530 26-894): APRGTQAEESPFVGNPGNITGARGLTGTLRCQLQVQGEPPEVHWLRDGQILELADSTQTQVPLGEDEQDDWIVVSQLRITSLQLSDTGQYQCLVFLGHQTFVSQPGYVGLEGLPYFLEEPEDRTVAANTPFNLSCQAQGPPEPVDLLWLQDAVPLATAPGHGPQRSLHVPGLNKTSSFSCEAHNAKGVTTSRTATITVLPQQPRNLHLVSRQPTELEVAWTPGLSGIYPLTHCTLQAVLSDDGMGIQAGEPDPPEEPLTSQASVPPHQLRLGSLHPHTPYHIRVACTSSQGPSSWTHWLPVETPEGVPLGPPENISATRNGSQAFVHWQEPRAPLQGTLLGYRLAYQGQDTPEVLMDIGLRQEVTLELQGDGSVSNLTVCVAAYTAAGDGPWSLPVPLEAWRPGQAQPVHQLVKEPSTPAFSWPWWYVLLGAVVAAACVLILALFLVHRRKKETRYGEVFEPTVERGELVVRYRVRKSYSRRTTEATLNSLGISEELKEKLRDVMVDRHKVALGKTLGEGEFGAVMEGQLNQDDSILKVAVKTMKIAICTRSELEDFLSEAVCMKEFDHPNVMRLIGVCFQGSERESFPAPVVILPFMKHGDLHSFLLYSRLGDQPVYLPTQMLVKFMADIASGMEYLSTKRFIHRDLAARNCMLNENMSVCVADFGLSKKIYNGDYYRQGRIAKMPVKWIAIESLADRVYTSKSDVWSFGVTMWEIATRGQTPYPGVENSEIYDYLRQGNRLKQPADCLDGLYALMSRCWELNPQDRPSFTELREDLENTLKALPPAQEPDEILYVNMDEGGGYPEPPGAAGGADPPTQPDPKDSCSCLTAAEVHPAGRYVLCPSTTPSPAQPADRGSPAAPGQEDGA
Procedure: Example A: AXL Autophosphorylation ELISA in A-172 Cells
A-172 glioblastoma cells (ATCC #CRL-1620) were seeded at 2.5×10^5 cells/well onto 24-well plates (Greiner #662165), in DMEM (Thermo Fisher #11995-040) containing 10% FBS (Thermo Fisher #26140-079), 1% MEM NEAA (Thermo Fisher #11140-050), 1% GlutaMax (Thermo Fisher #35050-061), and 1% Penicillin Streptomycin (Thermo Fisher #15140-122). A-172 cells were incubated at 37° C., 5% CO2 for 24 h and then starved for 24 h in serum-free medium. Test compounds were serially diluted to produce an 8-point dose curve in fresh serum-free medium to a final concentration of 0.3% DMSO (vehicle) and added to the cells and incubated for 1 h. Cells were then stimulated with 1 μg/mL recombinant human Gas6 (R&D Systems #885-GSB-500) for 15 min, washed with cold PBS, and immediately lysed with 150 μL of cold IX lysis buffer [20 mM Tris, 137 mM sodium chloride, 2 mM EDTA, 10% glycerol, 1% NP-40 alternative, 1 mM activated sodium orthovanadate, 1 mM PefaBloc SC (Sigma-Aldrich #11429868001), protease/phosphatase inhibitor tablet (Thermo Fisher #A32959)]. Lysates were collected and 100 μL/well added into the human phospho-AXL DuoSet IC ELISA (R&D Systems #DYC2228-2). Assay was performed according to manufacturer's instructions and sample phospho-AXL concentrations were extrapolated using human phospho-AXL control (R&D Systems #841645) as a standard. Positive control wells (100% activity) contained Gas6-stimulated, DMSO-treated cell lysates. Negative control wells (0% activity) contained Gas6-stimulated, reference inhibitor-treated cell lysates. IC50 values were calculated by nonlinear regression analysis using a 4-parameter logistic curve fit in ActivityBase XE (IDBS).

T1 sequence (P35968 20-1356): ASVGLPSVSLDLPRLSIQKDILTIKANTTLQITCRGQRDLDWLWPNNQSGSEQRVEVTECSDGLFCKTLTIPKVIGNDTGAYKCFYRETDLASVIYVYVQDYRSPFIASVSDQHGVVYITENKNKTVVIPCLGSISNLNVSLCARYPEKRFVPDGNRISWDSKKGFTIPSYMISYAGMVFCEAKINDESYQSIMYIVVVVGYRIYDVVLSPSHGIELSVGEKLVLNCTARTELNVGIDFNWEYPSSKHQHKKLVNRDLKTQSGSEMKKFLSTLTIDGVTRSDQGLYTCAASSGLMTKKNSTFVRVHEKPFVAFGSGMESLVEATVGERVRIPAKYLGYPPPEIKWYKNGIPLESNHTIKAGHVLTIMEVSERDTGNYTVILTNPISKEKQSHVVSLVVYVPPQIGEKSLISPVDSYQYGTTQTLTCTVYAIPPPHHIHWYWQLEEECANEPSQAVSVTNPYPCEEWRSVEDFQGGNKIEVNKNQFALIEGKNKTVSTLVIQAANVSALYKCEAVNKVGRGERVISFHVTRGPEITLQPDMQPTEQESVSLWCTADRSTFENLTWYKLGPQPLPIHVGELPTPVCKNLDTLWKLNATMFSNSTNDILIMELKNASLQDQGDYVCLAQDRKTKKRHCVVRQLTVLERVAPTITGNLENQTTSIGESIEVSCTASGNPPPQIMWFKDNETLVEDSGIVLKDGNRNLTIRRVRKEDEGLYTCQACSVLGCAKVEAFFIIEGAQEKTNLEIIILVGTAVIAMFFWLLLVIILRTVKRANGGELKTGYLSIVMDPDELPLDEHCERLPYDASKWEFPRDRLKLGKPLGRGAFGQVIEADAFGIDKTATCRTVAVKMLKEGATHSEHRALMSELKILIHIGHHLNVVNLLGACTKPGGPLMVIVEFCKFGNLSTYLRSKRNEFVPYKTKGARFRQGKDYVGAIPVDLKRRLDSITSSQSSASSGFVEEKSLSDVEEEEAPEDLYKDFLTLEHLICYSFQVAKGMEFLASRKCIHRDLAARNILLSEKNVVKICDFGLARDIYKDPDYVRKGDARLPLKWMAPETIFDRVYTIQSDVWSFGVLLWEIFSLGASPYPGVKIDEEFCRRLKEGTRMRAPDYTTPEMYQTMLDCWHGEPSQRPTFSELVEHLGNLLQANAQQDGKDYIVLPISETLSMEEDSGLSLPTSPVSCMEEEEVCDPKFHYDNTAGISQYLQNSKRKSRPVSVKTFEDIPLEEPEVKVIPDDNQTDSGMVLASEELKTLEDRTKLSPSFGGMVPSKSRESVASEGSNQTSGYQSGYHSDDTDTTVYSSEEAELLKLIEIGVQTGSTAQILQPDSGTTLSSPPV

Compound | IC50 (KDR) | IC50 (AXL)
COc1cc2nccc(Oc3ccc(NC(=O)C4(C(=O)N(C)c5ccc(F)cc5)CC4)cc3)c2cc1OC [Compound 9, 1-N-[4-(6,7-Dimethoxyquinolin-4-yl)oxyphenyl]-1-N′-(4-fluorophenyl)-1-N′-methylcyclopropane-1,1-dicarboxamide] | > 300 nM | > 300 nM
COc1cc2nccc(Oc3ccc(N(C)C(=O)C4(C(=O)Nc5ccc(F)cc5)CC4)cc3F)c2cc1OC [Compound 51, 1-N′-[4-(6,7-Dimethoxyquinolin-4-yl)oxy-3-fluorophenyl]-1-N-(4-fluorophenyl)-1-N′-methylcyclopropane-1,1-dicarboxamide] |  | > 300 nM
CNC(=O)c1cc2c(Oc3ncc(NC(=O)C4(C(=O)N(C)c5ccc(F)cc5)CC4)cc3F)ccnc2cc1OC [Compound 34, 1-N-[5-Fluoro-6-[7-methoxy-6-(methylcarbamoyl)quinolin-4-yl]oxypyridin-3-yl]-1-N′-(4-fluorophenyl)-1-N′-methylcyclopropane-1,1-dicarboxamide] | > 300 nM | > 300 nM

Further lines, results first:

IC50 (KDR) | IC50 (AXL) | Compound
> 300 nM | > 300 nM | COc1cc2nccc(Oc3ccc(NC(=O)C4(C(=O)N(C)c5ccc(F)cc5)CC4)cc3F)c2cc1OC [Compound 10, N-(4-((6,7-Dimethoxyquinolin-4-yl)oxy)-3-fluorophenyl)-N-(4-fluorophenyl)-N-methylcyclopropane-1,1-dicarboxamide]
> 300 nM | > 300 nM | COc1cc2nccc(Oc3ncc(NC(=O)C4(C(=O)N(C)c5ccc(F)cc5)CC4)cc3F)c2cc1C(N)=O [Compound 35, 1-N-[6-(6-Carbamoyl-7-methoxyquinolin-4-yl)oxy-5-fluoropyridin-3-yl]-1-N′-(4-fluorophenyl)-1-N′-methylcyclopropane-1,1-dicarboxamide]
